Experimental findings from ChEMBL document CHEMBL3217639, “Property based optimisation of glucokinase activators discovery of the phase IIb clinical candidate AZD1656” (Medchemcomm, 2012) are described below.

In brackets after ≈: the same amount, converted by molar mass. A value given as a limit tells only on which side of the number the result lay.

One series concerns Salmonella typhimurium. In words: Genotoxicity in Salmonella typhimurium by Ames test. It is filed as toxicity, organism-based. The settings on record: salmonella enterica subsp. enterica serovar typhimurium.
The nature of series [1]: Crystalline solubility of the compound. The format is physicochemical.
The nature of series [2]: Apparent permeability from apical to basolateral side in MDCK cells expressing human MDR1. The format is ADME, cell-based, Canis lupus familiaris. Particulars: dog.
The species named for series [3] is Rattus norvegicus. The experiment in a line: Unbound clearance in rat. It is filed as ADME, organism-based. The settings on record: in vivo.
The species entered for another series is Canis familiaris. In words: Unbound clearance in dog. It is filed as ADME, organism-based, Canis lupus familiaris. The settings on record: in vivo.
Series [4] deals with Rattus norvegicus. In words: Antidiabetic activity in high fat fed Zucker rat assessed as reduction of AUC of plasma glucose level at 3 mg/kg by oral glucose tolerance test. It is filed as functional. Also on record: scale not given: the % may be the effect or the level left.
The target in another series is T1, Hexokinase-4 (Homo sapiens, UniProt P35557).
T1 sequence (P35557 whole entry): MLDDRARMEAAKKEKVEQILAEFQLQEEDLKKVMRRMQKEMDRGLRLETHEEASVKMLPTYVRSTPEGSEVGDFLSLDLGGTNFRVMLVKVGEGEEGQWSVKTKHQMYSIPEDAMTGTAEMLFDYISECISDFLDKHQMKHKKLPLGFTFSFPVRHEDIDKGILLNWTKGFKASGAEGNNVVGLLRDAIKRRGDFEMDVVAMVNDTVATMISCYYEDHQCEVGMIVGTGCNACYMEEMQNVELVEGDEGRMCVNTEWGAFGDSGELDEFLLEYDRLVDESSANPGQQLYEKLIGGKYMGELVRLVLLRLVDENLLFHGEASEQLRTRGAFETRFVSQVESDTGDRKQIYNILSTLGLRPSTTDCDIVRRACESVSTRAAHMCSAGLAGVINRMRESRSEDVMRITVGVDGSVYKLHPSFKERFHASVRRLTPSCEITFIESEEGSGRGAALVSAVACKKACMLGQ
In words: […] of recombinant human pancreatic glucokinase by G-6-P dehydrogenase assay.

A short description of series [5]: Lipophilicity, log D of the compound. It is filed as physicochemical. Particulars: octanol/water.
The target of series [6] is Voltage-gated inwardly rectifying potassium channel KCNH2 (Homo sapiens, UniProt Q12809).
Series [7] in a line: Clearance in rat. It is filed as ADME, organism-based. Particulars: in vivo.
Series [8] is described as follows: Volume of distribution at steady state in rat. It is filed as ADME, organism-based. The settings on record: in vivo, read-out: Vdss.
A short description of series [9]: Oral bioavailability in rat. The format is ADME, organism-based. The settings on record: in vivo.
Series [10] can be described thus: Clearance in dog. It is filed as ADME, organism-based, Canis lupus familiaris. The settings on record: in vivo.
A short description of series [11]: Volume of distribution at steady state in dog. The settings on record: in vivo, read-out: Vdss. It is filed as ADME, organism-based, Canis lupus familiaris.
A short description of series [12]: Oral bioavailability in dog. The settings on record: in vivo. It is filed as ADME, organism-based, Canis lupus familiaris.
The subject of series [13] is Rattus norvegicus. In words: Antidiabetic activity in high fat fed Zucker rat assessed as reduction of AUC of plasma glucose level at 1 mg/kg by oral glucose tolerance test. The format is functional. More on the design: scale not given: the % may be the effect or the level left.

Chain of Voltage-gated inwardly rectifying potassium channel KCNH2 (Q12809 whole entry): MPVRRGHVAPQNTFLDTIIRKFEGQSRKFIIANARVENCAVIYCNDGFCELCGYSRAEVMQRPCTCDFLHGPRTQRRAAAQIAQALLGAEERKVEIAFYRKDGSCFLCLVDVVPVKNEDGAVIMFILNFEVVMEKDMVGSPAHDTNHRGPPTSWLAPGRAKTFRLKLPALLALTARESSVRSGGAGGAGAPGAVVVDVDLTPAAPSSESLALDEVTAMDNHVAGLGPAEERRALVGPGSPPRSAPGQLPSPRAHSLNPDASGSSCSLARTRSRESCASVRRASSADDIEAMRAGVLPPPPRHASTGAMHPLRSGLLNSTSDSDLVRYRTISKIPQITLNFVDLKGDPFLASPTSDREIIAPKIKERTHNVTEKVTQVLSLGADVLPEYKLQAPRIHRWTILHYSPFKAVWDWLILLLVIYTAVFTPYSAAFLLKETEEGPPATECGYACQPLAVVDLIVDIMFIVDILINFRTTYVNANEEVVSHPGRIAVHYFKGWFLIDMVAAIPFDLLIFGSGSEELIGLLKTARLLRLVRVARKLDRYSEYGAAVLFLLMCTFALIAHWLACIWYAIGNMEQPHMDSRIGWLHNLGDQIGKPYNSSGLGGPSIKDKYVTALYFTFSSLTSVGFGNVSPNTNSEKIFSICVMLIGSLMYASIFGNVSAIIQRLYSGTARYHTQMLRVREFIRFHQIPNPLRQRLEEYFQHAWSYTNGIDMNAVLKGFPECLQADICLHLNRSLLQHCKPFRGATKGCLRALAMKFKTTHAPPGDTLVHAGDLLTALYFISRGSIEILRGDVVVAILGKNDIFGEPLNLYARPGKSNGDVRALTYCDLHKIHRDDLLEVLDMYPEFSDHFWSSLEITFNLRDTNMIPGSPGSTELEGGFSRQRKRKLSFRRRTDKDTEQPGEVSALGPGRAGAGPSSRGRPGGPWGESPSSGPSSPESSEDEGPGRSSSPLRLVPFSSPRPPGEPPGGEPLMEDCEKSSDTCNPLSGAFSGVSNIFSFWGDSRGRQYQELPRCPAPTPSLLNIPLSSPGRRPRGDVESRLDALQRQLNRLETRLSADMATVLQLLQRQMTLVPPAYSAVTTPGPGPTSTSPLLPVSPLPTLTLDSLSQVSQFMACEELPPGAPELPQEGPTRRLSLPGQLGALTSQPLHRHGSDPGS

Consider `Nc1cc[nH]n1`, for which the Activity result in the series on Salmonella typhimurium is given as “Non-toxic”.

As to `C[C@@H](CO)Oc1cc(Oc2ccc(C(=O)N3CCC3)cc2)cc(C(=O)Nc2ccn(C)n2)c1`, the solubility (thermodynamic) – broadly, the concentration in solution at equilibrium with solid – in series [1] stood at 350 µM (≈ 158 µg/mL). Also, the Papp A→B – broadly, the apparent permeability from the apical to the basolateral side of a cell layer – in [2] was 1.2 ×10⁻⁶ cm/s. Also, the results for the CL free in the series filed under Rattus norvegicus [3] and in the series listed under Canis familiaris were 480 mL/min/kg and 61 mL/min/kg, respectively. The Activity in the series with Rattus norvegicus [4] is given as 24%.

Turning to `CCn1ccc(NC(=O)c2cc(Oc3ccc(C(=O)N4CCC4)cc3)cc(O[C@@H](C)CO)c2)n1`, on Hexokinase-4, the EC50 (commonly the midpoint of the concentration-response curve) was determined as 31 nM. In series [5], the logD (in general, lipophilicity at a set pH, counting ionised and neutral species) is 2.4. The compound further showed a solubility (thermodynamic) in series [1] of 280 µM (≈ 130 µg/mL). Moreover, the Papp A→B in series [2] came out at 1.6 ×10⁻⁶ cm/s.

As for `CC(C)n1ccc(NC(=O)c2cc(Oc3ccc(C(=O)N4CCC4)cc3)cc(O[C@@H](C)CO)c2)n1`, the concentration giving a half-maximal response (EC50) on Hexokinase-4 is 73 nM. Further, in [5], the logD is 2.8. In series [1], this compound returned a solubility (thermodynamic) of 44 µM (≈ 21.1 µg/mL). Besides, in series [6], the IC50 (usually the concentration that inhibits the measured activity by half) came to 31000 nM.

For the compound `C[C@@H](CO)Oc1cc(Oc2ccc(C(=O)N3CCC3)cc2)cc(C(=O)Nc2cc[nH]n2)c1`, at Hexokinase-4, the EC50 is 53 nM. In addition, in [5], the logD worked out at 2. In series [1], this compound returned a thermodynamic solubility of 670 µM (≈ 292 µg/mL). For the same compound, in series [2], the Papp A→B worked out at 0.8 ×10⁻⁶ cm/s. The compound also gave an IC50 in series [6] of more than 100000 nM.

With `C[C@@H](CO)Oc1cc(Oc2ccc(C(=O)N3CCC3)cc2)cc(C(=O)Nc2nccs2)c1`, the EC50 on Hexokinase-4 worked out at 32 nM. Further, the logD in [5] was 3.1. In series [1], this compound returned a solubility (thermodynamic) of 9 µM (≈ 4.08 µg/mL). In [6], this compound came in with an IC50 of 9000 nM.

Consider `Cc1nsc(NC(=O)c2cc(Oc3ccc(C(=O)N4CCC4)cc3)cc(O[C@@H](C)CO)c2)n1`, for which, at Hexokinase-4, the concentration for a half-maximal effect (EC50) was found to be 35 nM. In addition, the logD in series [5] was found to be 2.7. The compound further gave a thermodynamic solubility in series [1] of 17 µM (≈ 7.97 µg/mL). The Papp A→B in series [2] came to 5.2 ×10⁻⁶ cm/s. This compound had an IC50 in series [6] of 11000 nM.

As for `Cc1cnc(NC(=O)c2cc(Oc3ccc(C(=O)N4CCC4)cc3)cc(O[C@@H](C)CO)c2)cn1`, the EC50 at Hexokinase-4 is 61 nM. The compound also showed a logD in series [5] of 2.4. In [1], this compound yielded a solubility (thermodynamic) of 17 µM (≈ 7.86 µg/mL). In series [2], the Papp A→B was determined as 4.1 ×10⁻⁶ cm/s. Also, the IC50 in [6] stood at 38000 nM.

For the compound `Cn1ccc(N)n1`, in the series with Salmonella typhimurium, the Activity entry is reported as “Toxic”.

With `CCn1ccc(N)n1`, in the series on Salmonella typhimurium, the Activity result is listed as “Toxic”.

As to `CC(C)n1ccc(N)n1`, in the series on Salmonella typhimurium, the Activity entry is given as “Toxic”.

For `Cc1cnc(N)cn1`, the Activity entry in the series with Salmonella typhimurium is recorded as “Non-toxic”.

In the case of `COC[C@H](C)Oc1cc(Oc2ccc(C(=O)N3CCC3)cc2)cc(C(=O)Nc2ccn(C)n2)c1`, the EC50 on Hexokinase-4 is 37 nM. This compound registered a logD in series [5] of 2.5. In series [1], this compound had a thermodynamic solubility of 490 µM (≈ 228 µg/mL). Further, the apical-to-basolateral permeability (Papp A→B) in series [2] stood at 12 ×10⁻⁶ cm/s.

In the case of `CC(C)Oc1cc(Oc2ccc(C(=O)N3CCC3)cc2)cc(C(=O)Nc2ccn(C)n2)c1`, the EC50 on Hexokinase-4 worked out at 110 nM. Moreover, the logD in series [5] came to 3.3. In series [1], this compound displayed a thermodynamic solubility of 125 µM (≈ 54.3 µg/mL). The compound also showed an IC50 in series [6] of 27000 nM.

For `Cn1ccc(NC(=O)c2cc(Oc3ccc(C(=O)N4CCC4)cc3)cc(O[C@H]3CCOC3)c2)n1`, on Hexokinase-4, the EC50 is 70 nM. In [5], this compound yielded a logD of 2.2. In addition, the solubility (thermodynamic) in [1] worked out at 180 µM (≈ 83.3 µg/mL). The apical-to-basolateral permeability (Papp A→B) in [2] came to 6.4 ×10⁻⁶ cm/s.

On to `Cn1ccc(NC(=O)c2cc(Oc3ccc(C(=O)N4CCC4)cc3)cc(OC3CCOCC3)c2)n1`, for which the EC50 at Hexokinase-4 worked out at 170 nM. Further, the thermodynamic solubility in series [1] came to 170 µM (≈ 81 µg/mL).

With `Cn1ccc(NC(=O)c2cc(Oc3ccc(C(=O)N4CCC4)cc3)cc(OC(CF)CF)c2)n1`, the EC50 on Hexokinase-4 turned out to be 47 nM. Moreover, the logD in series [5] was 2.6. In series [1], this compound had a thermodynamic solubility of 11 µM (≈ 5.18 µg/mL). The Papp A→B in [2] was found to be 7 ×10⁻⁶ cm/s.

Consider `COC[C@H](C)Oc1cc(Oc2ccc(C(=O)N3CCC3)cc2)cc(C(=O)Nc2cnc(C)cn2)c1`, for which the EC50 at Hexokinase-4 was 73 nM. In [5], this compound showed a logD of 2.9. This compound also returned a solubility (thermodynamic) in series [1] of 30 µM (≈ 14.3 µg/mL). Besides, the Papp A→B in series [2] came out at 29 ×10⁻⁶ cm/s.

For `COC[C@H](C)Oc1cc(Oc2ccc(C(=O)N3CCC3)nc2)cc(C(=O)Nc2cnc(C)cn2)c1`, on Hexokinase-4, the EC50 amounted to 36 nM. Moreover, the logD in series [5] is 2.9. In series [1], the solubility (thermodynamic) was determined as 21 µM (≈ 10 µg/mL). Further, the Papp A→B in [2] worked out at 18 ×10⁻⁶ cm/s. Besides, in series [6], the IC50 came to 40000 nM.

For `COC[C@H](C)Oc1cc(Oc2ccc(C(=O)N3CCC3)cn2)cc(C(=O)Nc2cnc(C)cn2)c1`, at Hexokinase-4, the EC50 was 370 nM.

With `COC[C@H](C)Oc1cc(Oc2ncc(C(=O)N3CCC3)cc2Cl)cc(C(=O)Nc2cnc(C)cn2)c1`, on Hexokinase-4, the EC50 worked out at 60 nM. Also, in series [5], the logD was 2.8. The compound further displayed a solubility (thermodynamic) in series [1] of 8 µM (≈ 4.1 µg/mL).

For `Cc1nsc(N)n1`, the Activity entry in the series on Salmonella typhimurium is “Non-toxic”.

Turning to `Nc1nccs1` [AMINOTHIAZOLE], in the series with Salmonella typhimurium, the Activity result is on record as “Non-toxic”.

In the case of `COC[C@H](C)Oc1cc(Oc2cnc(C(=O)N3CCC3)cn2)cc(C(=O)Nc2cnc(C)cn2)c1` [AZD-1656], the EC50 at Hexokinase-4 worked out at 61 nM. For the same compound, the logD in series [5] is 2.4. In addition, in series [1], the solubility (thermodynamic) stood at 280 µM (≈ 134 µg/mL). Moreover, in series [2], the apparent permeability from apical to basolateral (Papp A→B) was 35 ×10⁻⁶ cm/s. The clearance – broadly, a measure of how efficiently the substance is removed, as volume per time – in series [7] is 16 mL/min/kg; in [10] it was 8.1 mL/min/kg. Moreover, the CL free in the series listed under Rattus norvegicus [3] was found to be 310 mL/min/kg; in the series listed under Canis familiaris it was 50 mL/min/kg. Also, the Vd worked out at 0.5 L/kg in series [8] and 1.5 L/kg in series [11]. In addition, the bioavailability in series [9] and in series [12] was 100% in each case. Further, the Activity in the series on Rattus norvegicus [13] is given as 43%. Further, the IC50 in [6] is more than 100000 nM.
